Test results published in the supplement of paper PMC11061612.

Experiments:
[1] = test system: NCI-H1092 (Small Cell Lung Carcinoma); assay: Bliss excess, mean over the matrix (fraction); higher = more synergy
Method in brief: (§1)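 Bliss excess equals the observed combination effect minus the expected value EA + EB − EA·EB, where EA and EB are the effects of each agent alone. Combination Emax is the second-highest inhibition within the matrix. Inhibition was scaled from CellTiter-Glo 2.0 luminescence, with 0 set by vehicle wells and 1 by blank wells, after 72 hours of two-drug dosing of cells plated in 1536-well plates.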

[2] = test system: Hey (Ovarian Carcinoma); assay: as above
Method in brief: as §1

[3] = test system: NCI-H522 (Lung Adenocarcinoma); assay: combination Emax (second highest fraction inhibited in the dose matrix, 72 h); higher = more inhibition; extreme values may be limits of the assay
Method in brief: as §1

[4] = test system: DU-145 (Prostate Carcinoma); assay: as above
Method in brief: as §1

[5] = test system: OE33 (Esophageal Adenocarcinoma); assay: as above
Method in brief: as §1

[6] = test system: ML-2 (Acute Myeloid Leukemia); assay: as above
Method in brief: as §1

[7] = test system: Ca-Ski (Cervical Carcinoma); assay: as above
Method in brief: as §1

[8] = test system: LC-1-sq (Squamous Cell Lung Carcinoma); assay: as above
Method in brief: as §1

[9] = test system: NCI-H1355 (Lung Adenocarcinoma); assay: as above
Method in brief: as §1

[10] = test system: MV-4-11 (Acute Myeloid Leukemia); assay: as above
Method in brief: as §1

[11] = test system: SW872 (Other Solid Carcinomas); assay: as above
Method in brief: as §1

[12] = test system: SNU-387 (Hepatocellular Carcinoma); assay: as above
Method in brief: as §1

[13] = test system: EW-1 (Ewing's Sarcoma); assay: as above
Method in brief: as §1

[14] = test system: KMRC-1 (Kidney Carcinoma); assay: as above
Method in brief: as §1

[15] = test system: Mo-T (Other Blood Carcinomas); assay: as above
Method in brief: as §1

[16] = test system: COLO-679 (Melanoma); assay: as above
Method in brief: as §1

[17] = test system: SW982 (Other Solid Carcinomas); assay: as above
Method in brief: as §1

[18] = test system: G-401 (Other Solid Carcinomas); assay: as above
Method in brief: as §1

[19] = test system: COLO-668 (Small Cell Lung Carcinoma); assay: as above
Method in brief: as §1

Compound | Bliss excess [1] | Bliss excess [2] | combination Emax [3] | combination Emax [4] | combination Emax [5] | combination Emax [6] | combination Emax [7] | combination Emax [8] | combination Emax [9] | combination Emax [10] | combination Emax [11] | combination Emax [12] | combination Emax [13] | combination Emax [14] | combination Emax [15] | combination Emax [16] | combination Emax [17] | combination Emax [18] | combination Emax [19]
CC1(C)CCC(CN2CCN(c3ccc(C(=O)NS(=O)(=O)c4ccc(NCC5CCOCC5)c([N+](=O)[O-])c4)c(Oc4cnc5[nH]ccc5c4)c3)CC2)=C(c2ccc(Cl)cc2)C1 [Venetoclax] + C1CN(CCC1(C(=O)N[C@@H](CCO)C2=CC=C(C=C2)Cl)N)C3=NC=NC4=C3C=CN4 [Capivasertib] (first compound max 1 µM, 7x7, partner max 3 µM) | 0.0236 | -0.0504 | 0.133 | 0.2 | 0.184 | 0.933 | 0.415 | 0.198 | 0.268 | 1 | 0.152 | 0.23 | 0.365 | 0.368 | 0.604 | 0.146 | 0.256 | 0.518 | 0.469
CCc1c2c(nc3ccc(O)cc13)-c1cc3c(c(=O)n1C2)COC(=O)[C@]3(O)CC [SN-38] + O=C(c1cc(Cc2n[nH]c(=O)c3ccccc23)ccc1F)N1CCN(C(=O)C2CC2)CC1 [Olaparib] (first compound max 0.3 µM, 7x7, partner max 10 µM) | -0.0076 | 0.0559 | 0.389 | 0.813 | 0.587 | 1 | 0.997 | 0.455 | 0.366 | 1 | 1 | 0.146 | 0.99 | 0.318 | 0.724 | 0.743 | 0.789 | – | 1
CC1(C)CCC(CN2CCN(c3ccc(C(=O)NS(=O)(=O)c4ccc(NCC5CCOCC5)c([N+](=O)[O-])c4)c(Oc4cnc5[nH]ccc5c4)c3)CC2)=C(c2ccc(Cl)cc2)C1 [Venetoclax] + Cn1cnc2c(F)c(Nc3ccc(Br)cc3Cl)c(C(=O)NOCCO)cc21 [Selumetinib] (first compound max 1 µM, 7x7, partner max 3 µM) | -0.0691 | -0.0238 | 0.0772 | 0.184 | 0.174 | 1 | 0.219 | 0.236 | 0.273 | 1 | 0.105 | 0.295 | 0.238 | 0.135 | 0.618 | 0.737 | 0.242 | 0.33 | 0.787
COc1cccc2c1C(=O)c1c(O)c3c(c(O)c1C2=O)C[C@@](O)(C(=O)CO)C[C@@H]3O[C@H]1C[C@H](N)[C@H](O)[C@H](C)O1 [Doxorubicin] + Cc1cc2ncnn2cc1Nc1ncc2c(n1)n(C1CCOCC1)c(=O)n2C [AZD7648] (first compound max 1 µM, 7x7, partner max 10 µM) | -0.0037 | 0.13 | 0.697 | 0.649 | 0.526 | 0.913 | 0.913 | 0.727 | 0.624 | 1 | 0.811 | 0.65 | 0.952 | 0.518 | 0.871 | 0.959 | 0.884 | 0.938 | 0.93
COc1cccc(OCCCN)c1-c1cc(Nc2cnc(C#N)cn2)n[nH]1 [Prexasertib] + O=C(c1cc(Cc2n[nH]c(=O)c3ccccc23)ccc1F)N1CCN(C(=O)C2CC2)CC1 [Olaparib] (first compound max 1 µM, 7x7, partner max 10 µM) | -0.0514 | -0.0098 | 0.418 | 0.603 | 0.691 | 1 | 0.787 | 0.956 | 0.746 | 0.998 | 0.937 | 0.542 | 0.96 | 0.558 | 0.52 | 0.851 | 0.767 | 0.533 | 0.736
CC1(C)CCC(CN2CCN(c3ccc(C(=O)NS(=O)(=O)c4ccc(NCC5CCOCC5)c([N+](=O)[O-])c4)c(Oc4cnc5[nH]ccc5c4)c3)CC2)=C(c2ccc(Cl)cc2)C1 [Venetoclax] + Cc1cc2ncnn2cc1Nc1ncc2c(n1)n(C1CCOCC1)c(=O)n2C [AZD7648] (first compound max 1 µM, 7x7, partner max 10 µM) | 0.0303 | -0.0604 | 0.112 | 0.137 | 0.154 | 0.823 | 0.209 | 0.242 | 0.346 | 1 | 0.158 | 0.167 | 0.418 | 0.181 | 0.616 | 0.133 | 0.27 | 0.424 | 0.447
COc1cccc(OCCCN)c1-c1cc(Nc2cnc(C#N)cn2)n[nH]1 [Prexasertib] + C[C@@H]1COCCN1C2=NC(=NC(=C2)C3(CC3)[S@](=N)(=O)C)C4=C5C=CNC5=NC=C4 [AZD6738] (first compound max 1 µM, 7x7, partner max 10 µM) | -0.0568 | 0.007 | 0.388 | 0.666 | 0.858 | 1 | 0.728 | 0.965 | 0.74 | 1 | 0.884 | 0.537 | 0.96 | 0.555 | 0.571 | 0.867 | 0.723 | 0.565 | 0.746
